Results as given in ChEMBL document CHEMBL5465560, “Selectivity Literature for EUbOPEN Chemogenomic Library” (2024).

Columns and labels:
[1] = Selectivity interaction (KinomeScan (DiscoverX)) EUB0000666a CDPK1; conditions: at 10 µM
Misshapen-like kinase 1 = Misshapen-like kinase 1 (Homo sapiens, UniProt Q8N4C8); assay: Selectivity interaction (KinomeScan (DiscoverX)) EUB0000607a MINK1; conditions: at 10 µM
[2] = target: Phosphatidylinositol 4-phosphate 3-kinase C2 domain-containing subunit alpha (Homo sapiens) (UniProt O00443); assay: Selectivity interaction (Kinase panel (Invitrogen)) EUB0000639a PIK3C2A; conditions: at 200 nM
[3] = target: T1, Serine/threonine-protein kinase D3 (Homo sapiens) (UniProt O94806); assay: Selectivity interaction (ActivX KiNativ screen (kinase selectivity in THP-1 cell lysates)) EUB0000639a PRKD3; assay type: subcellular; conditions: lysate, at 5 µM
T1 sequence (whole entry): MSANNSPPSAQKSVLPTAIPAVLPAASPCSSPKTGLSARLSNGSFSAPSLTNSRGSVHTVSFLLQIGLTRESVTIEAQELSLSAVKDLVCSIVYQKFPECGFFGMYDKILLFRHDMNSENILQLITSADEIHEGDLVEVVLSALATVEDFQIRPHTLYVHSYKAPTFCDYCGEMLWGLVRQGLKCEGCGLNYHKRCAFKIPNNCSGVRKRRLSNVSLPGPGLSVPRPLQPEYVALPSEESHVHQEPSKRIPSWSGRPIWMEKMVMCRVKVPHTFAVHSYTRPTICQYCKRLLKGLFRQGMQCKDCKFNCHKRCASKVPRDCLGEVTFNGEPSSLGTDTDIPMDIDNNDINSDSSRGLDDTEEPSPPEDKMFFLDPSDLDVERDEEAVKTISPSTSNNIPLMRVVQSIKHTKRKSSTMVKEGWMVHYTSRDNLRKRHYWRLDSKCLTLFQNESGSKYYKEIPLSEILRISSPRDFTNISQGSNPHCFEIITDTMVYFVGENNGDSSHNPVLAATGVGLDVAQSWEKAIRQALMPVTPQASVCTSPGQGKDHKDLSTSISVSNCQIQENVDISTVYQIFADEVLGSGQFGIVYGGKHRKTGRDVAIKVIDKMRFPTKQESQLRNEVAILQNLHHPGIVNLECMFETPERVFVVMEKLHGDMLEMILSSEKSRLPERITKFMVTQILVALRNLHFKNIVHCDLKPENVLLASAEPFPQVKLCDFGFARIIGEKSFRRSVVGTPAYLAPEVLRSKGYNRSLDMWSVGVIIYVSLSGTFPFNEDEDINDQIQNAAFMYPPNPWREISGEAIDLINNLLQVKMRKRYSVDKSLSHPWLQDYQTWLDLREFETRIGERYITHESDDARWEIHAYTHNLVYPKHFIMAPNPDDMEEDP

[4] = target: Mitogen-activated protein kinase 14 (Homo sapiens, UniProt Q16539); assay: Selectivity interaction (ActivX KiNativ screen (kinase selectivity in THP-1 cell lysates)) EUB0000639a MAPK14; assay type: subcellular; conditions: lysate
[5] = target: Serine/threonine-protein kinase SMG1 (Homo sapiens) (UniProt Q96Q15); assay: Selectivity interaction (ActivX KiNativ screen (kinase selectivity in THP-1 cell lysates)) EUB0000639a SMG1; assay type: subcellular; conditions: lysate, at 1 µM
[6] = target: RAC-beta serine/threonine-protein kinase (Homo sapiens) (UniProt P31751); assay: Selectivity interaction (ProQinase) EUB0000171b AKT2
[7] = target: Ribosomal protein S6 kinase alpha-5 (Homo sapiens) (UniProt O75582); assay: Selectivity interaction (KinomeScan (DiscoverX)) EUB0000695a RPS6KA5; conditions: at 100 nM
[8] = target: Casein kinase I isoform alpha (Homo sapiens, UniProt P48729); assay: Selectivity interaction (KinomeScan (DiscoverX)) EUB0000655a CSNK1A1; conditions: at 10 µM
[9] = target: Dual specificity mitogen-activated protein kinase kinase 1 (Homo sapiens, UniProt Q02750); assay: Selectivity interaction (KinomeScan (DiscoverX)) EUB0000045b MAP2K1
[10] = target: Serine/threonine-protein kinase 33 (Homo sapiens) (UniProt Q9BYT3); assay: Selectivity interaction (KinomeScan (DiscoverX)) EUB0001079a STK33; conditions: at 1 µM
[11] = target: Cyclin-dependent kinase 7 (Homo sapiens, UniProt P50613); assay: Selectivity interaction (KinomeScan (DiscoverX)) EUB0001079a CDK7; conditions: at 1 µM
[12] = target: T2, Serine/threonine-protein kinase Nek3 (Homo sapiens) (UniProt P51956); assay: Selectivity interaction (KinomeScan (DiscoverX)) EUB0001079a NEK3; conditions: at 1 µM
T2 sequence (whole entry): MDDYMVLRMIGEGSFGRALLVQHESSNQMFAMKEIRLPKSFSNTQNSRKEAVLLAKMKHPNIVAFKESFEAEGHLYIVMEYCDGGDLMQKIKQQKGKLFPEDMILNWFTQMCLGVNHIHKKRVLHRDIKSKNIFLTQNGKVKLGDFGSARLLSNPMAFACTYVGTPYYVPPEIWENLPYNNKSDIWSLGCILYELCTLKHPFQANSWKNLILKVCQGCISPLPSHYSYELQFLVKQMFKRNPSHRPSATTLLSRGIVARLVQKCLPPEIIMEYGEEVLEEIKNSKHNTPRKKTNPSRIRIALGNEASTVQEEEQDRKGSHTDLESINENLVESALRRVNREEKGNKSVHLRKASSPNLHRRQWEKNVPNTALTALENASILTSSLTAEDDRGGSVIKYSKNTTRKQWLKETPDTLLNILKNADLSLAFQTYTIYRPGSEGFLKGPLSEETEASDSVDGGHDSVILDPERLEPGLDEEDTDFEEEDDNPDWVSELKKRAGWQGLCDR

[13] = target: Protein arginine N-methyltransferase 5 (Homo sapiens, UniProt O14744); assay: Selectivity interaction (Scintillation proximity assays) EUB0000230b PRMT5
[14] = target: Microtubule-associated serine/threonine-protein kinase 1 (Homo sapiens) (UniProt Q9Y2H9); assay: Selectivity interaction (KinomeScan (DiscoverX)) EUB0000092b MAST1; conditions: at 10 µM
[15] = target: Serine/threonine-protein kinase 32A (Homo sapiens) (UniProt Q8WU08); assay: Selectivity interaction (KinomeScan (DiscoverX)) EUB0000618a STK32A; conditions: at 10 µM
[16] = target: T2, Serine/threonine-protein kinase Nek3 (Homo sapiens); assay: Selectivity interaction (KinomeScan (DiscoverX)) EUB0001619a NEK3; conditions: at 1 µM
[17] = target: Angiopoietin-1 receptor (Homo sapiens) (UniProt Q02763); assay: Selectivity interaction (KinomeScan (DiscoverX)) EUB0001619a TEK; conditions: at 1 µM

Sequence of Mitogen-activated protein kinase 14 (Q16539 whole entry): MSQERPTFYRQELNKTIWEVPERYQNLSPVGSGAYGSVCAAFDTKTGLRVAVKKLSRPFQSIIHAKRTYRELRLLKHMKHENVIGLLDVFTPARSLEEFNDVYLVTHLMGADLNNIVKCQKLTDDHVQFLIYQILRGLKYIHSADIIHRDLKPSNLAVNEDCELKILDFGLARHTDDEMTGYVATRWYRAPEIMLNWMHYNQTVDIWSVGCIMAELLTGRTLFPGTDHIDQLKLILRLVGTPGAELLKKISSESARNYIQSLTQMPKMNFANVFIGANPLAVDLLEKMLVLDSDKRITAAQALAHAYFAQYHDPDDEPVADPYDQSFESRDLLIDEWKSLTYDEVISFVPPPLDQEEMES
Sequence of RAC-beta serine/threonine-protein kinase (Homo sapiens) (P31751 whole entry): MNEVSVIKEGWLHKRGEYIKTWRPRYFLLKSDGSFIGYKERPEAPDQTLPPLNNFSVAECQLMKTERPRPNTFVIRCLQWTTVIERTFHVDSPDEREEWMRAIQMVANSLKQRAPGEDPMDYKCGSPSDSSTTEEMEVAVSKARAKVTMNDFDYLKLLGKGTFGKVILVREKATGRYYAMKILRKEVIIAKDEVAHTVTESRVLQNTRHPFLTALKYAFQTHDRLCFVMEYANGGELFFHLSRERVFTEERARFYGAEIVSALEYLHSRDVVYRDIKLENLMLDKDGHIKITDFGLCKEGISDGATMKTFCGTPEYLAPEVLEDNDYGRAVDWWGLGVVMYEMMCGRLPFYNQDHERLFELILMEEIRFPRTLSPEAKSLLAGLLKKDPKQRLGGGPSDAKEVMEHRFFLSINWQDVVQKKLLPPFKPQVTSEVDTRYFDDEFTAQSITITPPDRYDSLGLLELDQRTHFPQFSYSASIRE
Sequence of Dual specificity mitogen-activated protein kinase kinase 1 (Q02750 whole entry): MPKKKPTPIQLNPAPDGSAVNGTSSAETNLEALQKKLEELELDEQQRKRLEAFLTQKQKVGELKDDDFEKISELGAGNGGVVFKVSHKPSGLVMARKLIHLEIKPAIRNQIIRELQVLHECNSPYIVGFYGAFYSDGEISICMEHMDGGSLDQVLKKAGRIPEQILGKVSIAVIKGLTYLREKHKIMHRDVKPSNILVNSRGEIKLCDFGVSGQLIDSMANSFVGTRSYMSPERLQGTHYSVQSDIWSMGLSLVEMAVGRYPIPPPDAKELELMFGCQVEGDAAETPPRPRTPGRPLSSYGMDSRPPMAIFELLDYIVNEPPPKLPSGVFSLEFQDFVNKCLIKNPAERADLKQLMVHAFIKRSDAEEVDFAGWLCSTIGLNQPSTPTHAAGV
Sequence of Phosphatidylinositol 4-phosphate 3-kinase C2 domain-containing subunit alpha (Homo sapiens) (O00443 whole entry, the tested form may be a part): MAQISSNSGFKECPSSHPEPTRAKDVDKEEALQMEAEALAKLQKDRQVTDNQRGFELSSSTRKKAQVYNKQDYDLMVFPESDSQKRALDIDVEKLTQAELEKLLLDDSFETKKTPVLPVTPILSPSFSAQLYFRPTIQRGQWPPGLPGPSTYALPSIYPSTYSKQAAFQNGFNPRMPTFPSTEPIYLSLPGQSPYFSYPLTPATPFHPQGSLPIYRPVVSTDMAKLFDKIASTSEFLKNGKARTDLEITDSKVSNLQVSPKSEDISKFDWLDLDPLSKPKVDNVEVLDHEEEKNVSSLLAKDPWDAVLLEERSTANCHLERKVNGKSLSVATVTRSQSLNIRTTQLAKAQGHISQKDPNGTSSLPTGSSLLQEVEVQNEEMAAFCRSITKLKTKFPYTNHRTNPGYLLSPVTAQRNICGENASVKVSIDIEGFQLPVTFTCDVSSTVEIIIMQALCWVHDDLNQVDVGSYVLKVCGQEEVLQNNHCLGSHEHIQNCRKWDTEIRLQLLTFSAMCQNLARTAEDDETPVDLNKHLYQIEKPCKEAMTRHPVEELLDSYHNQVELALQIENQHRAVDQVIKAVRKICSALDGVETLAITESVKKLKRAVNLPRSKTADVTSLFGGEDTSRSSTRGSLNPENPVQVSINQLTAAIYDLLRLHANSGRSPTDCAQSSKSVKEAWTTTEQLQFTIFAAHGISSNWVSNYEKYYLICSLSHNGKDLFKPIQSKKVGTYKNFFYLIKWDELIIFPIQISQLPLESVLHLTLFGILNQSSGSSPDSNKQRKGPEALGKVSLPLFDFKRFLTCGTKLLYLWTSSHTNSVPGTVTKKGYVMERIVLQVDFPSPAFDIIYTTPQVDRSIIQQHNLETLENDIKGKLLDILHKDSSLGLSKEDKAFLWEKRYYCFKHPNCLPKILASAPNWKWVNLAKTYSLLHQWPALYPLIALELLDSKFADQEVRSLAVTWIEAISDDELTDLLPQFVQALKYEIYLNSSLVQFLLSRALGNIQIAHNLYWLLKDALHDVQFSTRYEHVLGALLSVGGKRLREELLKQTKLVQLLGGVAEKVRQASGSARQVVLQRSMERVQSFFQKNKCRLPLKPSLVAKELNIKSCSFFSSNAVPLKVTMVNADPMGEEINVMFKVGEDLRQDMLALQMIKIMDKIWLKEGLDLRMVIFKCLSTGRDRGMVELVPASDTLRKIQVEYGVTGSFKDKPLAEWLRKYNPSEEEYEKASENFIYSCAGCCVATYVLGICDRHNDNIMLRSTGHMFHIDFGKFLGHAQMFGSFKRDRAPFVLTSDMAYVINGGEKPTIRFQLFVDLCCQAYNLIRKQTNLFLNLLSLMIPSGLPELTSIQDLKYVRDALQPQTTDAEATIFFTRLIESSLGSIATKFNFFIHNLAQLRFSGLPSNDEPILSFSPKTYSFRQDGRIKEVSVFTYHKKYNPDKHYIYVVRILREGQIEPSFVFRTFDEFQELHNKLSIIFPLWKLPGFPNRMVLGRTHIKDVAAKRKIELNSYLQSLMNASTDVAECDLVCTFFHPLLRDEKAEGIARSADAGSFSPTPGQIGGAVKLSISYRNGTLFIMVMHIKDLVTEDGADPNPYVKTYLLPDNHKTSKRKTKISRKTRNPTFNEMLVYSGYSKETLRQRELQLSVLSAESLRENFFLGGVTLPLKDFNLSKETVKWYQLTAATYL
Sequence of Cyclin-dependent kinase 7 (P50613 whole entry): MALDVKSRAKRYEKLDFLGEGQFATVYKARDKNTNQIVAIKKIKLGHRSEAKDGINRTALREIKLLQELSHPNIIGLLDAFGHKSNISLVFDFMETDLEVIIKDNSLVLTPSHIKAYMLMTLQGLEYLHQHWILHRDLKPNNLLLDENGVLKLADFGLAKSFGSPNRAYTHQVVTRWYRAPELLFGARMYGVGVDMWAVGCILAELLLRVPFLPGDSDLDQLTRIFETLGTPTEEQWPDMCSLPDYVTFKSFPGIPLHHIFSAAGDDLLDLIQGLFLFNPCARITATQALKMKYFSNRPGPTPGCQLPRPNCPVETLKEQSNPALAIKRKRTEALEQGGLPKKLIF
Sequence of Ribosomal protein S6 kinase alpha-5 (Homo sapiens) (O75582 whole entry, looked up, canonical isoform): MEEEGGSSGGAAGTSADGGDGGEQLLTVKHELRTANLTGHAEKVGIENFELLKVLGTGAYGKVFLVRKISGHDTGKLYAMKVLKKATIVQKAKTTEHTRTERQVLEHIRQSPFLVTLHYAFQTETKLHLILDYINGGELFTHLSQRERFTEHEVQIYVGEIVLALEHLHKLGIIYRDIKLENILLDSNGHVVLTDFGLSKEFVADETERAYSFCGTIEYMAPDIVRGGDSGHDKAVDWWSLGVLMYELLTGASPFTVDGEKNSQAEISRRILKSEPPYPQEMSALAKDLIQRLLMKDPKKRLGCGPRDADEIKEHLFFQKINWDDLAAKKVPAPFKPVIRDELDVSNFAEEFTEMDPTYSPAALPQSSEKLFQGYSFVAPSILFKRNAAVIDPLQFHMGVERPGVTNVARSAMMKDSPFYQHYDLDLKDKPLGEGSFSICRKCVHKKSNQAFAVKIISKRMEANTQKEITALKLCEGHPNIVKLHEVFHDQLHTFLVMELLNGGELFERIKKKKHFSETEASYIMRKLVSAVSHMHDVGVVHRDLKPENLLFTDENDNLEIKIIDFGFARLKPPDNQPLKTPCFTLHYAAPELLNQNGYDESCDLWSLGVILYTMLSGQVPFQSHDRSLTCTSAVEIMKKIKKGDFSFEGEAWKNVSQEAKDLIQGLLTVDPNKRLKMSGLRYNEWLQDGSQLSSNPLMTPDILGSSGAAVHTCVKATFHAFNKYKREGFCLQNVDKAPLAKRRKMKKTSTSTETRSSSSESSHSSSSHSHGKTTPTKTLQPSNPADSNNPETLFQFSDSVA
Sequence of Casein kinase I isoform alpha (P48729 2-337 limits assumed): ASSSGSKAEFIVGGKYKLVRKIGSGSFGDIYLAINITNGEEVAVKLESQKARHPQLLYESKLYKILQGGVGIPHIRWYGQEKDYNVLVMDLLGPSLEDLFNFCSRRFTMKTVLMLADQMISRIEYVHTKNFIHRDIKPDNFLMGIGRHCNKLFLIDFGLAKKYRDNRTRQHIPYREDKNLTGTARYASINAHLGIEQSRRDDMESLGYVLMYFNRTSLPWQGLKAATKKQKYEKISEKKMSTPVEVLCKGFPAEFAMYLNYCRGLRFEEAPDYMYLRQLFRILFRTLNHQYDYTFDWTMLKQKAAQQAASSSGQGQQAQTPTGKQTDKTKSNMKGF
Sequence of Serine/threonine-protein kinase 33 (Homo sapiens) (Q9BYT3 whole entry, looked up): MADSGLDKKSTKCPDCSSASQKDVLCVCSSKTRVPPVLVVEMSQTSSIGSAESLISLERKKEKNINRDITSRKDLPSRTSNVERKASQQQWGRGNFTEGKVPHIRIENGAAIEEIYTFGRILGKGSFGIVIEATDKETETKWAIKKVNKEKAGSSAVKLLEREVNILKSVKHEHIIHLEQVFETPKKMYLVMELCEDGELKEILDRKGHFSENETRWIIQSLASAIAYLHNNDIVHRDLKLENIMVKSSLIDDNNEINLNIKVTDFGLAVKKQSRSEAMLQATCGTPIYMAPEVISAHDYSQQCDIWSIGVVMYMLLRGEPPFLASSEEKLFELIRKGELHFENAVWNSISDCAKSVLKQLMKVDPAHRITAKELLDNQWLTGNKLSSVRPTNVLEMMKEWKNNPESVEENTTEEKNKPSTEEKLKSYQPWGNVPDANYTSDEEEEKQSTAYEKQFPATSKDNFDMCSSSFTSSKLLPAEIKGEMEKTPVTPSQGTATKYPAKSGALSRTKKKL

O=C(NOC[C@H](O)CO)c1ccc(F)c(F)c1Nc1ccc(I)cc1F
% of control [1]: 78%

CNC(=O)Nc1ccc(-c2nc(N3CC4CCC(C3)O4)c3cnn(C4CCC5(CC4)OCCO5)c3n2)cc1
% of control (Misshapen-like kinase 1): 100%

CC[C@@H]1[C@H](F)C(=O)N[C@@H]1COc1nccc2cc(C(N)=O)c(OC)cc12 [ZIMLOVISERTIB]
% of inhibition [2]: -2.62% | % of inhibition [3]: -5.2% | % of inhibition ([4]; at 0.01 µM): 0.8% | % of inhibition ([4]; at 0.04 µM): 1.1% | % of inhibition ([4]; at 0.2 µM): 10.2% | % of inhibition ([4]; at 1 µM): 10.6% | % of inhibition ([4]; at 5 µM): 4.8% | % of inhibition [5]: 4.9%

C=CC(=O)Nc1cccc(C(=O)Nc2ccc(Nc3cc(-c4[nH]c(SC)nc4C)ccn3)cc2)c1
% of control ([6]; at 1 µM): 92% | % of control ([6]; at 5 µM): 78%

Cc1cc(F)c(C(=O)Nc2cccc(-c3nncn3C(C)C)n2)cc1-n1cnc(C2CC2)c1
% of control [7]: 100%

CN(C)CCOc1ccc(-c2nc(-c3ccncc3)c(-c3ccc4c(c3)CC/C4=N\O)[nH]2)cc1
% of control [8]: 38%

C=CC(=O)Nc1cc(-n2c(=O)ccc3cnc4ccc(-c5ccc(NS(C)(=O)=O)cc5)cc4c32)ccc1C
% of control ([9]; at 1 µM): 100% | % of control ([9]; at 10 µM): 65%

Nc1cnc(N2CCc3cc(S(=O)(=O)Nc4c(F)cc(Cl)cc4F)cc(N4CCCC4=O)c32)nc1 [TP-020n]
% of control [10]: 80% | % of control [11]: 100% | % of control [12]: 100%

CNCCN1CCC(c2cc(CN(C)C(=O)c3cccc(Oc4ccccc4)c3)ccn2)CC1
IC50 [13]: > 10 µM

CCC(=O)N1CCN(c2ccc(-n3c(=O)ccc4cnc5ccc(-c6cnc7ccccc7c6)cc5c43)cc2C(F)(F)F)CC1
% of control [14]: 93%

O[C@H]1CC[C@H](Nc2ncc3nc(Nc4c(F)cc(F)cc4F)n([C@H]4CCOC4)c3n2)CC1
% of control [15]: 62%

N#Cc1cccc(-c2c[nH]c3ncnc(N4CCOCC4)c23)c1
% of control [16]: 100% | % of control [17]: 100%
